Data reported in patent US4760081A, “1,6-naphthyridine derivatives useful for treating diseases of the blood vessels” (Goedecke Aktiengesellschaft, priority 1984, dated 1988).
pIC50: −log10 of the molar value. Counter-ions that a name gives are not always drawn. Like-named read-outs stand apart in the source and are kept apart here.

Assays:
[1] = test system: isolated papillary muscle of the guinea pig; experiment: Isolated papillary muscle: isometric contraction under field stimulation; assay type: cell-based; conditions: for IC50: read-out: IC50 /100 (IC = inhibition concentration, IC100 corresponds to maximum action) (converted)
From the text: However, it cannot be excluded that the dimethyl sulfoxide used as a solvent has contributed to the observed positive inotropic action.

arteria saphena = experiment: Isolated smooth muscle: inhibition of K+ depolarization contraction of blood vessel rings in an organ bath, A. saphena; assay type: cell-based; conditions: rabbit, average diameter 0.5-1.0 mm, read-out: IC50, semi-maximum inhibition of the K+ depolarization contraction of blood vessel rings, A. saph.
From the text: (§1) Isolated smooth muscle from rabbits (blood vessel rings, A. basilaris, A. coronaria, A. saphena) are fixed in an organ bath in such a manner that isometric contractions can be measured. The contraction is initiated by a potassium depolarization in tyrode solution.

arteria coronaria = experiment: Isolated smooth muscle: inhibition of K+ depolarization contraction of blood vessel rings in an organ bath, A. coronaria; assay type: cell-based; conditions: rabbit, average diameter 0.5-1.0 mm, read-out: IC50, semi-maximum inhibition of the K+ depolarization contraction of blood vessel rings, A. cor.
From the text: as §1

arteria basilaris = experiment: Isolated smooth muscle: inhibition of K+ depolarization contraction of blood vessel rings in an organ bath, A. basilaris; assay type: cell-based; conditions: rabbit, average diameter 0.5-1.0 mm, read-out: IC50, semi-maximum inhibition of the K+ depolarization contraction of blood vessel rings, A. bas.
From the text: as §1

[2] = test system: papillary muscle of the rabbit; conditions: Hof and Scholtysik, cited from earlier work
[3] = Cavia porcellus, papillary muscle of guinea pig, 250/min, 10 msec, 10-20 V field stimulation

IC50 [1, 3] | pIC50 (arteria saphena; Oryctolagus cuniculus) | pIC50 (arteria coronaria; Oryctolagus cuniculus) | pIC50 (arteria basilaris; Oryctolagus cuniculus) | Molecule | further results
300000 nM | 8.15 | 7.52 | 8.30 | COC(=O)C1=C(C)Nc2ccnc(OC(C)C)c2C1c1ccccc1F (racemic) [Example 1, Methyl (±)-4-(2-fluorophenyl)-1,4-dihydro-5-isopropoxy-2-methyl-1,6-naphthyridine-3-carboxylate] | –
– | 8.47 | 9.12 | 9.18 | COC(=O)C1=C(C)Nc2ccnc(OC(C)C)c2C1c1ccccc1[N+](=O)[O-] (racemic) [Example 1b, methyl (±)-1,4-dihydro-5-isopropoxy-2-methyl-4-(2-nitrophenyl)-1,6-naphthyridine-3-carboxylate] | –
– | 6.00 | 7.19 | 7.82 | COC(=O)C1=C(C)Nc2ccnc(OC(C)C)c2C1c1ccccc1 (racemic) [Example 1c, methyl (±)-1,4-dihydro-5-isopropoxy-2-methyl-4-phenyl-1,6-naphthyridine-3-carboxylate] | activation at 0.3 µM ([1]; Cavia porcellus, 3×10^-7 mol/liter, read-out: maximum increase of the contractility): 36%; activation at 0.004 µM ([1]; Cavia porcellus, 4×10^-9 mol/liter, read-out: increase of the contractility): 18%
– | – | 8.49 | 8.23 | COC(=O)C1=C(C)Nc2ccnc(OC(C)C)c2C1c1c(F)cccc1Cl (racemic) [Example 1g, methyl (±)-4-(2-chloro-6-fluorophenyl)-1,4-dihydro-5-isopropoxy-2-methyl-1,6-naphthyridine-3-carboxylate] | –
– | 6.00 | 7.82 | 5.52 | CCCOc1nccc2c1C(c1ccccc1C(F)(F)F)C(C(=O)OC)=C(C)N2 (racemic) [Example 1h, methyl (±)-1,4-dihydro-2-methyl-5-propoxy-4-(2-trifluoromethylphenyl)-1,6-naphthyridine-3-carboxylate] | –
120000 nM | 6.41 | 7.51 | 8.13 | CCOC(=O)C1=C(C)Nc2ccnc(OC(C)C)c2C1c1ccccc1C(F)(F)F (racemic) [Example 1l, ethyl (±)-1,4-dihydro-5-isopropoxy-2-methyl-4-(2-trifluoromethylphenyl)-1,6-naphthyridine-3-carboxylate] | –
– | 7.05 | 6.00 | 6.60 | COC(=O)C1=C(C)Nc2ccnc(OC)c2C1c1ccccc1 (racemic) [Example 2, Methyl (±)-1,4-dihydro-5-methoxy-2-methyl-4-phenyl-1,6-naphthyridine-3-carboxylate] | –
– | 6.22 | 8.00 | 8.22 | CCOC(=O)C1=C(C)Nc2ccnc(OC)c2C1c1ccccc1Cl (racemic) [Example 2a, ethyl (±)-4-(2-chlorophenyl)-1,4-dihydro-5-methoxy-2-methyl-1,6-naphthyridine-3-carboxylate] | –
– | 6.22 | 7.92 | 8.74 | CCOC(=O)C1=C(C)Nc2ccnc(OC)c2C1c1cccc([N+](=O)[O-])c1 (racemic) [Example 2b, ethyl (±)-1,4-dihydro-5-methoxy-2-methyl-4-(3-nitrophenyl)-1,6-naphthyridine-3-carboxylate] | –
10000 nM | 5.54 | 6.77 | 6.92 | COc1ccc([C@@H]2Sc3ccccc3N(CCN(C)C)C(=O)[C@@H]2OC(C)=O)cc1 [diltiazem, reference compound] | –
– | – | – | – | methyl (±)-4-(2-bromoethyl)-1,4-dihydro-5-isopropoxy-2-methyl-1,6-naphthyridine-3-carboxylate [Example 1a] | Δ% = maximum decrease of the contractility ([1]; at IC100, papillary muscle of guinea pig, 250/min, 10 msec, 10-20 V field stimulation): -48%; IC50 ([1]; papillary muscle of guinea pig, 250/min, 10 msec, 10-20 V field stimulation): 300000 nM; pIC50 (arteria saphena): 8.10; pIC50 (arteria coronaria): 8.57; pIC50 (arteria basilaris): 8.62

Molecule | IC50 [1, 3] | pIC50 (arteria saphena; Oryctolagus cuniculus) | pIC50 (arteria coronaria; Oryctolagus cuniculus) | pIC50 (arteria basilaris; Oryctolagus cuniculus) | further results
CCOC(=O)C1=C(C)Nc2ccnc(OC(C)CC)c2C1c1ccccc1C(F)(F)F (racemic) [Example 1p, ethyl (±)-5-sec-butoxy-1,4-dihydro-2-methyl-4-(2-trifluoromethylphenyl)-1,6-napthyridine-3-carboxylate hydrochloride] | 10000 nM | – | 7.28 | 7.80 | –
CCOC(=O)C1=C(C)Nc2ccnc(OCC(C)C)c2C1c1ccccc1C(F)(F)F (racemic) [Example 1q, ethyl (±)-1,4-dihydro-5-isobutoxy-2-methyl-4-(2-trifluoromethylphenyl)-1,6-naphthyridine-3-carboxylate] | 10000 nM | – | 6.72 | 7.46 | –
COC(=O)C1=C(C)NC(C)=C(C(=O)OC)C1c1ccccc1[N+](=O)[O-] [nifedipine, reference compound] | – | 7.23 | 8.30 | 8.57 | pIC50 ([2]; read-out: IC50 /100 (IC = inhibition concentration, IC100 corresponds to maximum action)): 6.00; Δ% = maximum decrease of the contractility [2]: -80%
